As a reminder, the fold induction is the signal under treatment as a multiple of the control signal. A higher fold induction goes with a large rise in signal.

Where a chain is given by its changes, count along the chain named.

The values below come from PMC4252478 (Biochemical pharmacology, 2014).

The target of series [1] is T1, hPXR ligand-binding domain (Homo sapiens, UniProt O75469).
T1 sequence (O75469 146-433 limits assumed): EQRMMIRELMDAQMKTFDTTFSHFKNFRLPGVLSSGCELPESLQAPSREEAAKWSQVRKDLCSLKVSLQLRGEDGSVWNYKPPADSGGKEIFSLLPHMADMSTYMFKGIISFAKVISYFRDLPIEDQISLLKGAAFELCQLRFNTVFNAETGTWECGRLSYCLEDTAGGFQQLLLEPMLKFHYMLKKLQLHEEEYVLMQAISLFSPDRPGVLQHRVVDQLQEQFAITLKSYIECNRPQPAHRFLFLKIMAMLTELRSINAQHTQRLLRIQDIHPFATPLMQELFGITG
Description: LanthaScreen TR-FRET PXR competitive ligand-binding assay. As to conditions: 1.75 μM, compared with vehicle control. Background: TR-FRET usually uses a lanthanide donor and a delayed reading to cut background.

Series [2] has as its system CYP3A4 and MDR1 expression. The series is described as follows: CYP3A4 and MDR1 expression in human primary hepatocytes. The class given is cell-based. The settings on record: 48-h treatment, two donors.
In another series the test system is hPXR mutants. The format is cell-based, human. The settings on record: 21 alanine mutants, various MET concentrations, HepG2.
The test system of series [3] is human carbonic anhydrase isoforms I and III. The settings on record: ref [31]; cited from earlier work.
In series [4] the test system is HepG2, LS180, and LS174T cells. Description: Cell viability assay. The class given is cell-based, human. The settings on record: 1.7 nM to 56 μM.
The target in another series is T2, wild-type hPXR (Homo sapiens, UniProt O75469).
T2 sequence (O75469 1-434): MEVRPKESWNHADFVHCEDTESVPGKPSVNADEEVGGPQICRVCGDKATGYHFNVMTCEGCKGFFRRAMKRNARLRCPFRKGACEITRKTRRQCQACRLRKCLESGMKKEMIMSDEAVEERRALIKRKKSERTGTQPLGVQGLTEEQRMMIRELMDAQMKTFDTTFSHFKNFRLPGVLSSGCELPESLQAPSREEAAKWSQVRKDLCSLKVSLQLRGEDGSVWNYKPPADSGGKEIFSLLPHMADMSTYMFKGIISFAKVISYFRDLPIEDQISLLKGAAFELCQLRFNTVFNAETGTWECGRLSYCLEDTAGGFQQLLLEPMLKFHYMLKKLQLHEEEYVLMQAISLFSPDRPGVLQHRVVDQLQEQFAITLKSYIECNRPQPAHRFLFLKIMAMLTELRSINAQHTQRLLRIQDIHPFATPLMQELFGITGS
Description: CYP3A4 promoter luciferase reporter assay in HepG2 cells, wild-type hPXR. As to conditions: HepG2, 24 h, relative luciferase units (a.u.), DMSO 0.40. The format is cell-based. On the technique in general: A reporter such as luciferase makes a cellular process visible.

Series [5] concerns the target T3, wild-type hPXR (CYP3A4 promoter) (Homo sapiens, UniProt O75469).
T3 sequence (O75469 1-434): T2 sequence (O75469 1-434)
The description is as above. The format is cell-based. The settings on record: human.

Series [6] deals with T4, hPXR (Homo sapiens, UniProt O75469).
T4 sequence (O75469 1-434): T2 sequence (O75469 1-434)
As to conditions: HEK293T cells, 24 h; for PXR activation in the screen: 28 μM.

The subject of series [7] is human carbonic anhydrase isoforms VII, XII, and XIII. The settings on record: ref [31]; cited from earlier work.
Series [8] addresses T4, hPXR. Description: CYP3A4 promoter luciferase reporter assay in HepG2 cells. As to conditions: HepG2, LS180 and LS174T cells, 24 h.
For series [9], the system named is CYP3A4 and MDR1 expression. The series is described as follows: CYP3A4 and MDR1 expression in LS180 and LS174T intestine cells. The class given is cell-based, human. As to conditions: Western blot.
Series [10] deals with hPXR and SRC-1 interaction (Homo sapiens, UniProt O75469). The series is described as follows: Mammalian two-hybrid assay in HepG2 cells. As to conditions: 24 h, 5 μM rifampicin, 5, 10 or 20 μM MET. The format is cell-based.
The target in series [11] is T5, hPXR R410A mutant (CYP3A4 promoter) (Homo sapiens, UniProt O75469, R410A).
T5 sequence (O75469 1-434 R410A): T2 sequence (O75469 1-434) with R410A
Description: CYP3A4 promoter luciferase reporter assay in HepG2 cells, hPXR mutant R410A. The settings on record: human. The format is cell-based.

The next series concerns the target T6, hPXR R410A (Homo sapiens, UniProt O75469, R410A).
T6 sequence (O75469 1-434 R410A): T2 sequence (O75469 1-434) with R410A
Described as above. The class given is cell-based. As to conditions: HepG2, 24 h, relative luciferase units (a.u.), DMSO 3.28.

hPXR and SRC-1 interaction, sequence (Q15788 whole entry partner, one chain of several): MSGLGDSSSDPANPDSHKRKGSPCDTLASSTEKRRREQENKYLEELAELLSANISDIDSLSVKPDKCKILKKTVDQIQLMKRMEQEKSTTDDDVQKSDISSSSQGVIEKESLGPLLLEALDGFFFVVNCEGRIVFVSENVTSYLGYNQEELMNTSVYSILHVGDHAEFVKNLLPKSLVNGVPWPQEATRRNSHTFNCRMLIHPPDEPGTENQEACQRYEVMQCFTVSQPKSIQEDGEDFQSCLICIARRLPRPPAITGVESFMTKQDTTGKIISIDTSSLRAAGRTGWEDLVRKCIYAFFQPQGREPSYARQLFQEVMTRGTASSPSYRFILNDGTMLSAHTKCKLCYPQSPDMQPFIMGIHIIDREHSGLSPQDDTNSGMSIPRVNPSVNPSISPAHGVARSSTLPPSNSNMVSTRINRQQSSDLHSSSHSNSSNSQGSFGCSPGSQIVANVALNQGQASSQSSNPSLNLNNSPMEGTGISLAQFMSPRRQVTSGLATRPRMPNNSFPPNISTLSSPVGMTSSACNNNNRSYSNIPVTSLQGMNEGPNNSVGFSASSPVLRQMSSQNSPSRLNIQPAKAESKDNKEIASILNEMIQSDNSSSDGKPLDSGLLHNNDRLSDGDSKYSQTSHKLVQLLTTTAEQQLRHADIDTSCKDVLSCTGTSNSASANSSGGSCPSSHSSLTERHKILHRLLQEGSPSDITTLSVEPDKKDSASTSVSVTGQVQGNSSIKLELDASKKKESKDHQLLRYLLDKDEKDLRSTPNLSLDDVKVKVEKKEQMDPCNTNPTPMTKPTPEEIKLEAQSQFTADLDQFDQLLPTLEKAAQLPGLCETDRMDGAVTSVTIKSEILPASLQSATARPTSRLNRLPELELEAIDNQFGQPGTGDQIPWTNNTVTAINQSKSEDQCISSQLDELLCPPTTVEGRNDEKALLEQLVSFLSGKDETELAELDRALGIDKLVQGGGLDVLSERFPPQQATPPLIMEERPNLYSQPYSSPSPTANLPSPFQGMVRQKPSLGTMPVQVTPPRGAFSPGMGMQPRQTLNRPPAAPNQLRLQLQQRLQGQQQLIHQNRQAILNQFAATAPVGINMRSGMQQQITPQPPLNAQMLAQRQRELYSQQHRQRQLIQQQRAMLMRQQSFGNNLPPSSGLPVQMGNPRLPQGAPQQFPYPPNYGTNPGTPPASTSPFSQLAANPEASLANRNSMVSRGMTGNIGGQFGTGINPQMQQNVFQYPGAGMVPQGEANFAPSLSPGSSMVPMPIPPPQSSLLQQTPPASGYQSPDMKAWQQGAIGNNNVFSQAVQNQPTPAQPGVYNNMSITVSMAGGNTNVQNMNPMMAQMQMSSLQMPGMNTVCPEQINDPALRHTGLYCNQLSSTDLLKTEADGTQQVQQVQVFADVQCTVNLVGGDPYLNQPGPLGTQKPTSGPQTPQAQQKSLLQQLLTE

On to `Cc1ccccc1N1C(=O)c2cc(S(N)(=O)=O)c(Cl)cc2NC1C` (centres unmarked) [Metolazone], for which, in [1], the “tracer binding to hPXR-LBD” value is given as “decreased tracer binding to hPXR-LBD substantially”. The “expression of CYP3A4 and MDR1 mRNA and protein” value in series [2] is “induced the expression of CYP3A4 and MDR1 mRNA and protein”. Moreover, the “CYP3A4 promoter activity with hPXR mutants” value in the series on hPXR mutants was “increased CYP3A4 promoter activity substantially for all PXR mutants except L240A, F281A, and F420A”. Also, the “inhibition of carbonic anhydrase” value in series [3] is “weak inhibitor”; in series [7] it was “very potent”. Besides, in [4], the cytotoxicity entry was “not significantly cytotoxic even at high concentration”. Further, the CYP3A4 promoter activity is recorded as 3.93 at wild-type hPXR (10 μM MET), 4.22 on wild-type hPXR (20 μM MET), 6.43 at hPXR R410A (10 μM MET) and 4.92 on hPXR R410A (20 μM MET). Moreover, the fold induction at 24 h, 10 μM in series [5] is 9.83; in [11], 1.96. In addition, the fold induction at 24 h, 20 μM in series [5] is 10.6; in series [11], 1.5. The “activation of the CYP3A4-luc reporter” value at hPXR [6] (final compound concentration 28 μM, DMSO set as 0% and rifampicin at 5 μM set as 100%) turned out to be 182%. Besides, the “activation of PXR-regulated CYP3A4 promoter activity” value at hPXR [8] is “activator of PXR activity”. Also, the “CYP3A4 and MDR1 protein expression” value in series [9] is “induced CYP3A4 and MDR1 protein expression”. The “interaction between hPXR and SRC-1” value in series [10] is “substantially increased the interaction between hPXR and SRC-1”.
On to `NS(=O)(=O)c1cc2c(cc1C(F)(F)F)NC(Cc1ccccc1)NS2(=O)=O` (centres unmarked) [bendroflumethiazide], for which the “activation of PXR-regulated CYP3A4 promoter activity” value at hPXR [8] is “inactive”.
Consider `NS(=O)(=O)c1cc2c(cc1Cl)N=C(CSCc1ccccc1)NS2(=O)=O` [benzthiazide], for which, on hPXR [8], the “activation of PXR-regulated CYP3A4 promoter activity” value is “inactive”.
As to `NS(=O)(=O)c1cc2c(cc1Cl)NC(C1CC3C=CC1C3)NS2(=O)=O` (centres unmarked) [cyclothiazide], the “activation of PXR-regulated CYP3A4 promoter activity” value on hPXR [8] is “does not activate PXR”.
Regarding `O=C1Nc2ccc(Cl)cc2[C@@](C#CC2CC2)(C(F)(F)F)O1` [efavirenz], on hPXR [6], the “PXR activation in the screen” value is on record as “PXR activation”.
For the compound `NS(=O)(=O)c1cc2c(cc1Cl)NCNS2(=O)=O` [hydrochlorothiazide], the “activation of PXR-regulated CYP3A4 promoter activity” value on hPXR [8] is “inactive”.
For `CC(C)(O)c1ccccc1CC[C@@H](SCC1(CC(=O)O)CC1)c1cccc(/C=C/c2ccc3ccc(Cl)cc3n2)c1` [montelukast], the “PXR activation in the screen” value at hPXR [6] is reported as “PXR activation”.
As for `CCCCC1C(=O)N(c2ccccc2)N(c2ccccc2)C1=O` [phenylbutazone], the “PXR activation in the screen” value on hPXR [6] is reported as “PXR activation”.
With `Cc1cccc(C)c1NC(=O)c1cc(S(N)(=O)=O)c(Cl)cc1O` [xipamide], the “activation of PXR-regulated CYP3A4 promoter activity” value at hPXR [8] is “does not possess PXR-activating activity”.
